Values quoted from earlier work in article PMC9632963, “Preclinical characterization and phase I clinical trial of CT053PTSA targets MET, AXL, and VEGFR2 in patients with advanced solid tumors” (Frontiers in Immunology, 2022).
pIC50: −log10 of the molar value. Read-outs that look alike come from different tables or passages of the source.

Tests used:
[1] = tested on: Japanese patients with NSCLC; design: method as in PMID 30718102; settings: cited from earlier work
[2] = design: method as in PMID 27734291; settings: cited from earlier work
MET [3] = tested on: MET; design: method as in PMID 18089725; settings: NCI-H69 cells; read-out: IC50, phosphorylation of MET; cited from earlier work
MET [4] = tested on: MET; design: method as in PMID 18089725; settings: HOP92 cells; read-out: IC50, phosphorylation of MET; cited from earlier work
patients = tested on: patients; design: method as in PMID 30833489; settings: 20/50 patients; cited from earlier work

COc1cc2nccc(Oc3ccc(NC(=O)C4(C(=O)Nc5ccc(F)cc5)CC4)cc3)c2cc1OC [cabozantinib]
patients with ≥ grade 3 AEs ([1]; 16/23 patients): 70%
AE: diarrhea [1]: 78%
AE: hypertension [1]: 87%
AE: increased alanine aminotransferase [1]: 95%
AE: increased aspartate aminotransferase [1]: 95%
AE: palmar-plantar erythrodysesthesia [1]: 100%
half-life [2]: 108 to 126 h
median Tmax [2]: 4 h

C[C@@H](Oc1cc(-c2cnn(C3CCNCC3)c2)cnc1N)c1c(Cl)ccc(F)c1Cl [crizotinib]
pIC50 (MET [4]): 7.80

Cc1ccc(C(=O)Nc2ccc(Oc3cc4cnn(C)c4cc3-c3cn[nH]c3)c(F)c2)c(=O)n1-c1ccc(F)cc1 [merestinib]
patients with ≥ grade 3 TRAEs (patients): 40%
